1 sequence from paper doi:10.1101/2025.08.13.670037v1 (bioRxiv, 2025) can be followed below.

No end group written: not given here.

A short description of this data set: Stability of peptide in human plasma. The class given is in vitro ADME.

Take “PVLDLFRELLNELLEALKQKLKPDWLKAFYDKVAEKLKEAF [22A-P-18A]”: the “peptide lost, in sHDL particles” value (human plasma, 24h incubation) worked out at 15%. For the same sequence, the amount remaining – broadly, the share of the starting amount still present when the sample was taken – at 24 h, 0.25 mg/mL (human, plasma, SD) is 73.6 ± 6.3%.
